Source: the supplement of paper PMC11061612

Tests used:
[1] = system: NCI-H929 (Plasma Cell Myeloma); test: Bliss excess, mean over the matrix (fraction); higher = more synergy
Outline: (§1)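 Cell lines grown in DMEM/F12 or RPMI with 10% FBS were plated in 1536-well plates and held 24 hours at 37°C, 5% CO2 before 72 hours of exposure to two-drug dose matrices, with DMSO typically at 0.2%. CellTiter-Glo 2.0 luminescence gave viability, which was converted to inhibition. Vehicle wells were set to 0 and blank wells to 1. Combination Emax is the second-highest inhibition in the matrix, and Bliss excess is the observed combination effect minus the expected EA + EB − EA·EB, where EA and EB are the single-agent effects.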

[2] = system: CW-2 (Colorectal Carcinoma); test: as above
Outline: as §1

[3] = system: T-T (Esophageal Squamous Cell Carcinoma); test: as above
Outline: as §1

[4] = system: ST486 (Burkitt's Lymphoma); test: as above
Outline: as §1

[5] = system: NCCIT (Other Solid Carcinomas); test: as above
Outline: as §1

[6] = system: COR-L279 (Small Cell Lung Carcinoma); test: as above
Outline: as §1

M059J (Glioblastoma) [7] = test: as above
Outline: as §1

[8] = system: KU812 (Chronic Myelogenous Leukemia); test: as above
Outline: as §1

[9] = system: OCI-AML3 (Acute Myeloid Leukemia); test: as above
Outline: as §1

[10] = system: SK-GT-4 (Esophageal Adenocarcinoma); test: as above
Outline: as §1

[11] = system: KYSE-270 (Esophageal Squamous Cell Carcinoma); test: as above
Outline: as §1

[12] = system: MOG-G-CCM (Low Grade Glioma); test: as above
Outline: as §1

[13] = system: VMRC-RCZ (Kidney Carcinoma); test: as above
Outline: as §1

[14] = system: NCI-H3122 (Lung Adenocarcinoma); test: as above
Outline: as §1

SJSA-1 (Osteosarcoma) [15] = test: as above
Outline: as §1

[16] = system: NCI-H520 (Squamous Cell Lung Carcinoma); test: as above
Outline: as §1

[17] = system: NCI-H526 (Small Cell Lung Carcinoma); test: as above
Outline: as §1

[18] = system: KP-3 (Pancreatic Carcinoma); test: as above
Outline: as §1

[19] = system: MN-60 (B-Lymphoblastic Leukemia); test: as above
Outline: as §1

[20] = system: DMS-114 (Small Cell Lung Carcinoma); test: as above
Outline: as §1

NCI-H2731 (Mesothelioma) [21] = test: as above
Outline: as §1

[22] = system: NCI-H929 (Plasma Cell Myeloma); test: combination Emax (second highest fraction inhibited in the dose matrix, 72 h); higher = more inhibition; extreme values may be limits of the assay
Outline: as §1

[23] = system: CW-2 (Colorectal Carcinoma); test: as above
Outline: as §1

[24] = system: T-T (Esophageal Squamous Cell Carcinoma); test: as above
Outline: as §1

[25] = system: ST486 (Burkitt's Lymphoma); test: as above
Outline: as §1

[26] = system: NCCIT (Other Solid Carcinomas); test: as above
Outline: as §1

[27] = system: COR-L279 (Small Cell Lung Carcinoma); test: as above
Outline: as §1

M059J (Glioblastoma) [28] = test: as above
Outline: as §1

[29] = system: KU812 (Chronic Myelogenous Leukemia); test: as above
Outline: as §1

[30] = system: OCI-AML3 (Acute Myeloid Leukemia); test: as above
Outline: as §1

[31] = system: SK-GT-4 (Esophageal Adenocarcinoma); test: as above
Outline: as §1

[32] = system: KYSE-270 (Esophageal Squamous Cell Carcinoma); test: as above
Outline: as §1

[33] = system: MOG-G-CCM (Low Grade Glioma); test: as above
Outline: as §1

[34] = system: VMRC-RCZ (Kidney Carcinoma); test: as above
Outline: as §1

[35] = system: NCI-H3122 (Lung Adenocarcinoma); test: as above
Outline: as §1

SJSA-1 (Osteosarcoma) [36] = test: as above
Outline: as §1

[37] = system: NCI-H520 (Squamous Cell Lung Carcinoma); test: as above
Outline: as §1

[38] = system: NCI-H526 (Small Cell Lung Carcinoma); test: as above
Outline: as §1

[39] = system: KP-3 (Pancreatic Carcinoma); test: as above
Outline: as §1

[40] = system: MN-60 (B-Lymphoblastic Leukemia); test: as above
Outline: as §1

[41] = system: DMS-114 (Small Cell Lung Carcinoma); test: as above
Outline: as §1

NCI-H2731 (Mesothelioma) [42] = test: as above
Outline: as §1
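For Bliss excess, mean over the matrix in this document: after 72 h of two-drug dosing.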

SMILES: O=C(c1cc(Cc2n[nH]c(=O)c3ccccc23)ccc1F)N1CCN(C(=O)C2CC2)CC1 [Olaparib] + CN(CC[C@H](CSC1=CC=CC=C1)NC2=C(C=C(C=C2)S(=O)(=O)NC(=O)C3=CC=C(C=C3)N4CCC(CC4)[C@H](C5=CC=CC=C5C6=CC=C(C=C6)Cl)O)S(=O)(=O)C(F)(F)F)CCO [AZD4320] (first compound max 10 µM, 7x7, partner max 1 µM)
- Bliss excess [1]: -0.0336
- Bliss excess [2]: -0.0353
- Bliss excess [3]: -0.0174
- Bliss excess [4]: -0.0192
- Bliss excess [5]: -0.0075
- Bliss excess [6]: 0.0282
- Bliss excess (M059J (Glioblastoma) [7]): -0.0174
- Bliss excess [8]: -0.0517
- Bliss excess [9]: 0.057
- Bliss excess [10]: -0.0508
- Bliss excess [11]: -0.0221
- Bliss excess [12]: -0.0282
- Bliss excess [13]: -0.064
- Bliss excess [14]: -0.0184
- Bliss excess (SJSA-1 (Osteosarcoma) [15]): -0.0509
- Bliss excess [16]: -0.0283
- Bliss excess [17]: 0.0311
- Bliss excess [18]: -0.0422
- Bliss excess [19]: -0.044
- Bliss excess [20]: -0.0971
- Bliss excess (NCI-H2731 (Mesothelioma) [21]): -0.0491
- combination Emax [22]: 0.142
- combination Emax [23]: 0.113
- combination Emax [24]: 0.233
- combination Emax [25]: 0.754
- combination Emax [26]: 0.198
- combination Emax [27]: 0.992
- combination Emax (M059J (Glioblastoma) [28]): 0.321
- combination Emax [29]: 0.862
- combination Emax [30]: 0.548
- combination Emax [31]: 0.154
- combination Emax [32]: 0.383
- combination Emax [33]: 0.445
- combination Emax [34]: 0.0911
- combination Emax [35]: 0.223
- combination Emax (SJSA-1 (Osteosarcoma) [36]): 0.133
- combination Emax [37]: 0.125
- combination Emax [38]: 0.916
- combination Emax [39]: 0.104
- combination Emax [40]: 0.25
- combination Emax [41]: 0.214
- combination Emax (NCI-H2731 (Mesothelioma) [42]): 0.0908
